According to patent US20230279025A1, “KRAS G12D INHIBITORS” (Mirati Therapeutics, Inc., priority 2020, published 2023):
pIC50, pKd: −log10 of the molar value.

Columns and labels:
KRas G12D [1] = target: T1, KRas G12D (Homo sapiens (Human), UniProt P01116, G12D); experiment: KRas G12D Binding Assay (TR-FRET displacement of Cy5 labelled tracer); details: GDP-loaded KRAS G12D (amino acids 1:169), 60 minute incubation at 22° C.
Experimental: After a 60 minute incubation at 22° C., the reaction was measured using a PerkinElmer EnVision multimode plate reader via TR-FRET dual wavelength detection, and the percent of control (POC) calculated using a ratiometric emission factor. […] The POC values were fit to a 4-parameter logistic curve and the IC50 value was determined as the concentration where the curve crosses 50 POC.
ND stands for “not determined.”
Target sequence in this assay (P01116 other isoform, or with tags, fused parts or gaps G12D): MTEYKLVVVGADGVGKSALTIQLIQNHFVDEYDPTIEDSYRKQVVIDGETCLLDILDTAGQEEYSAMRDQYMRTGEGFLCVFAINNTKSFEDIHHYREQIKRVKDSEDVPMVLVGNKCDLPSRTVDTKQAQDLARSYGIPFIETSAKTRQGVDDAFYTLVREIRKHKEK

KRas G12D [2] = target: T1, KRas G12D; experiment: KRas G12D Surface Plasmon Resonance (SPR) Binding Assay; details: Biacore T200, immobilized biotinylated KRAS protein, 1:1 binding model
Target sequence in this assay (P01116-2 other isoform, or with tags, fused parts or gaps G12D): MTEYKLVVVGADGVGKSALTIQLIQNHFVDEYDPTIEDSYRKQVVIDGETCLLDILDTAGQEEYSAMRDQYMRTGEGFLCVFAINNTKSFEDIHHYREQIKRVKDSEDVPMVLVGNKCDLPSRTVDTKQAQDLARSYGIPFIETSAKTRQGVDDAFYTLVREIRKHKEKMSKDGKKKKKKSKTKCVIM

| Compound | pIC50 (KRas G12D [1]) | pKd (KRas G12D [2]) |
| --- | --- | --- |
| OC[C@@H]1CCN1c1nc(N2C[C@H]3CC[C@@H](C2)N3)c2cnc(-c3cc(O)cc4ccccc34)c(F)c2n1 [Example 121, 4-(4-((1R,5S)-3,8-diazabicyclo[3.2.1]octan-3-yl)-8-fluoro-2-((S)-2-(hydroxymethyl)azetidin-1-yl)pyrido[4,3-d]pyrimidin-7-yl)naphthalen-2-ol 2,2,2-trifluoroacetate] | 6.69 | 6.71 |
| CN(C)C1CN(c2nc(N3C[C@H]4CC[C@@H](C3)N4)c3cnc(-c4cccc5cccc(Cl)c45)c(F)c3n2)C1 [Example 122, 1-(4-((1R,5S)-3,8-diazabicyclo[3.2.1]octan-3-yl)-7-(8-chloronaphthalen-1-yl)-8-fluoropyrido[4,3-d]pyrimidin-2-yl)-N,N-dimethylazetidin-3-amine] | 5.49 | 5.47 |
| CN1CCC[C@H]1COc1nc(N2C[C@H]3CC[C@@H](C2)N3)c2cnc(-c3cccc4cccc(Cl)c34)cc2n1 [Example 123, 4-((1R,5S)-3,8-diazabicyclo[3.2.1]octan-3-yl)-7-(8-chloronaphthalen-1-yl)-2-(((S)-1-methylpyrrolidin-2-yl)methoxy)pyrido[4,3-d]pyrimidine] | 6.12 | 6.10 |
| CC1(N)CN(c2nc(N3C[C@H]4CC[C@@H](C3)N4)c3cnc(-c4cc(O)cc5ccccc45)c(F)c3n2)C1 [Example 124, 4-(2-(3-amino-3-methylazetidin-1-yl)-4-((1R,5S)-3,8-diazabicyclo[3.2.1]octan-3-yl)-8-fluoropyrido[4,3-d]pyrimidin-7-yl)naphthalen-2-ol] | 8.07 | 7.64 |
| CCC1(N)CN(c2nc(N3C[C@H]4CC[C@@H](C3)N4)c3cnc(-c4cc(O)cc5ccccc45)c(F)c3n2)C1 [Example 126, 4-(2-(3-amino-3-ethylazetidin-1-yl)-4-((1R,5S)-3,8-diazabicyclo[3.2.1]octan-3-yl)-8-fluoropyrido[4,3-d]pyrimidin-7-yl)naphthalen-2-ol] | 8.00 | 7.79 |
| CN(C)C1(C)CN(c2nc(N3C[C@H]4CC[C@@H](C3)N4)c3cnc(-c4cccc5cccc(Cl)c45)c(F)c3n2)C1 [Example 127, 1-(4-((1R,5S)-3,8-diazabicyclo[3.2.1]octan-3-yl)-7-(8-chloronaphthalen-1-yl)-8-fluoropyrido[4,3-d]pyrimidin-2-yl)-N,N,3-trimethylazetidin-3-amine] | 6.60 | 6.06 |
| CN1CC(COc2nc(N3C[C@H]4CC[C@@H](C3)N4)c3cnc(-c4cccc5cccc(Cl)c45)c(F)c3n2)CC1=O (stereo partly drawn) [Example 131, 4-(((4-((1R,5S)-3,8-diazabicyclo[3.2.1]octan-3-yl)-7-(8-chloronaphthalen-1-yl)-8-fluoropyrido[4,3-d]pyrimidin-2-yl)oxy)methyl)-1-methylpyrrolidin-2-one] | 6.37 | 5.81 |
| CN1CCC[C@H]1COc1nc(N2C[C@H]3CC[C@@H](C2)N3)c2cnc(-c3cccc4cccc(Cl)c34)c(F)c2n1 [Example 132, 4-((1R,5S)-3,8-diazabicyclo[3.2.1]octan-3-yl)-7-(8-chloronaphthalen-1-yl)-8-fluoro-2-(((S)-1-methylpyrrolidin-2-yl)methoxy)pyrido[4,3-d]pyrimidine] | 7.22 | 7.19 |
| CC1CCCc2cccc(-c3ncc4c(N5CC6CCC(C5)N6)nc(OC[C@@H]5CCCN5C)nc4c3F)c21 (stereo partly drawn) [Example 133, 4-((I R,5S)-3,8-diazabicyclo[3.2.1]octan-3-yl)-8-fluoro-7-(8-methyl-5,6,7,8-tetrahydronaphthalen-1-yl)-2-(((S)-1-methylpyrrolidin-2-yl)methoxy)pyrido[4,3-d]pyrimidine] | 7.31 | 6.95 |
| Nc1cccc(CCOc2nc(N3C[C@H]4CC[C@@H](C3)N4)c3cnc(-c4cc(O)cc5ccccc45)c(F)c3n2)n1 [Example 139, 4-(2-(2-(6-aminopyridin-2-yl)ethoxy)-4-((1R,5S)-3,8-diazabicyclo[3.2.1]octan-3-yl)-8-fluoropyrido[4,3-d]pyrimidin-7-yl)naphthalen-2-ol] | 6.95 | 7.60 |
| Fc1c(-c2cccc3cccc(Cl)c23)ncc2c(N3C[C@H]4CC[C@@H](C3)N4)nc(OC3CCc4[nH]ncc4C3)nc12 (stereo partly drawn) [Example 142, 4-((1R,5S)-3,8-diazabicyclo[3.2.1]octan-3-yl)-7-(8-chloronaphthalen-1-yl)-8-fluoro-2-((4,5,6,7-tetrahydro-1H-indazol-5-yl)oxy)pyrido[4,3-d]pyrimidine] | 5.05 | 4.86 |
| Fc1c(-c2cccc3cccc(Cl)c23)ncc2c(N3C[C@H]4CC[C@@H](C3)N4)nc(OC3CCc4cn[nH]c4C3)nc12 (stereo partly drawn) [Example 143, 4-((1R,5S)-3,8-diazabicyclo[3.2.1]octan-3-yl)-7-(8-chloronaphthalen-1-yl)-8-fluoro-2-((4,5,6,7-tetrahydro-1H-indazol-6-yl)oxy)pyrido[4,3-d]pyrimidine] | 5.34 | 4.83 |
| Fc1c(-c2cccc3cccc(Cl)c23)ncc2c(N3C[C@H]4CC[C@@H](C3)N4)nc(OCCn3cccn3)nc12 [Example 147, 2-(2-(1H-pyrazol-1-yl)ethoxy)-4-((1R,5S)-3,8-diazabicyclo[3.2.1]octan-3-yl)-7-(8-chloronaphthalen-1-yl)-8-fluoropyrido[4,3-d]pyrimidine] | 5.23 | 4.73 |
| CN1CCC[C@H]1COc1nc(N2C[C@H]3CC[C@@H](C2)N3)c2cnc(-c3cncc4cccc(Cl)c34)c(F)c2n1 [Example 151, 4-((1R,5S)-3,8-diazabicyclo[3.2.1]octan-3-yl)-7-(5-chloroisoquinolin-4-yl)-8-fluoro-2-(((S)-1-methylpyrrolidin-2-yl)methoxy)pyrido[4,3-d]pyrimidine] | 6.41 | 6.35 |
| CN1CCC[C@H]1COc1nc(N2CC3CCC(C)(C2)N3)c2cnc(-c3cc(O)cc4ccccc34)c(F)c2n1 (stereo partly drawn) [Example 156, 4-(8-fluoro-4-(1-methyl-3,8-diazabicyclo[3.2.1]octan-3-yl)-2-(((S)-1-methylpyrrolidin-2-yl)methoxy)pyrido[4,3-d]pyrimidin-7-yl)naphthalen-2-ol bis(2,2,2-trifluoroacetate)] | 8.04 | 3.30 |
| CN1CCC[C@H]1COc1nc(N2CC3CCC(CCC#N)(C2)N3)c2cnc(-c3cc(O)cc4ccccc34)c(F)c2n1 (stereo partly drawn) [Example 157, 3-(3-(8-fluoro-7-(3-hydroxynaphthalen-1-yl)-2-(((S)-1-methylpyrrolidin-2-yl)methoxy)pyrido[4,3-d]pyrimidin-4-yl)-3,8-diazabicyclo[3.2.1]octan-1-yl)propanenitrile bis(2,2,2-trifluoroacetate)] | 7.58 | 7.64 |
| CN1CCC[C@H]1COc1nc(N2CC3CCC(Cl)(C2)N3)c2cnc(-c3cc(O)cc4ccccc34)c(F)c2n1 (stereo partly drawn) [Example 160, 4-(4-(1-chloro-3,8-diazabicyclo[3.2.1]octan-3-yl)-8-fluoro-2-(((S)-1-methylpyrrolidin-2-yl)methoxy)pyrido[4,3-d]pyrimidin-7-yl)naphthalen-2-ol bis(2,2,2-trifluoroacetate)] | 6.92 | 9.52 |
| CN1CCC[C@H]1COc1nc(N2C[C@H]3CC[C@@H](C2)N3)c2cnc(-c3cccc4c3C(C)(C)CC4)c(F)c2n1 [Example 161, 4-((1R,5S)-3,8-diazabicyclo[3.2.1]octan-3-yl)-7-(3,3-dimethyl-2,3-dihydro-1H-inden-4-yl)-8-fluoro-2-(((S)-1-methylpyrrolidin-2-yl)methoxy)pyrido[4,3-d]pyrimidine bis(2,2,2-trifluoroacetate)] | 6.56 | 6.39 |
| CN1CCC[C@H]1COc1nc(N2C[C@H]3CC[C@@H](C2)N3)c2cnc(-c3cccc4c3C3(CC4)CC3)c(F)c2n1 [Example 162, 4-((1R,5S)-3,8-diazabicyclo[3.2.1]octan-3-yl)-7-(2′,3′-dihydrospiro[cyclopropane-1,1′-inden]-7′-yl)-8-fluoro-2-(((S)-1-methylpyrrolidin-2-yl)methoxy)pyrido[4,3-d]pyrimidine bis(2,2,2-trifluoroacetate)] | 6.17 | 6.26 |
| Cn1ccnc1CCOc1nc(N2C[C@H]3C[C@@H](O)[C@@H](C2)N3)c2cnc(-c3cccc4cccc(Cl)c34)c(F)c2n1 [Example 173, (1R,5R,6R)-3-(7-(8-chloronaphthalen-1-yl)-8-fluoro-2-(2-(1-methyl-1H-imidazol-2-yl)ethoxy)pyrido[4,3-d]pyrimidin-4-yl)-3,8-diazabicyclo[3.2.1]octan-6-ol] | 7.00 | 6.93 |
| CC1CCc2cccc(-c3ncc4c(N5CC6CCC(C5)N6)nc(OC[C@@H]5CCCN5C)nc4c3F)c21 (stereo partly drawn) [Example 174, 4-((1R,5S)-3,8-diazabicyclo[3.2.1]octan-3-yl)-8-fluoro-7-(3-methyl-2,3-dihydro-1H-inden-4-yl)-2-(((S)-1-methylpyrrolidin-2-yl)methoxy)pyrido[4,3-d]pyrimidine] | 7.19 | 6.73 |
| C#Cc1cccc2cccc(-c3ncc4c(N5C[C@H]6CC[C@@H](C5)N6)nc(OCC56CCCN5CCC6)nc4c3F)c12 [Example 179, 4-((1R,5S)-3,8-diazabicyclo[3.2.1]octan-3-yl)-7-(8-ethynylnaphthalen-1-yl)-8-fluoro-2-((hexahydro-1H-pyrrolizin-7a-yl)methoxy)pyrido[4,3-d]pyrimidine] | 8.96 | 10.00 |
| Cc1c(-c2cc(O)cc3ccccc23)ncc2c(N3C[C@H]4CC[C@@H](C3)N4)nc(OC[C@@H]3CCCN3C)nc12 [Example 190, 4-(4-((1R,5S)-3,8-diazabicyclo[3.2.1]octan-3-yl)-8-methyl-2-(((S)-1-methylpyrrolidin-2-yl)methoxy)pyrido[4,3-d]pyrimidin-7-yl)naphthalen-2-ol] | 7.19 | 7.12 |
